Source: PubChem BioAssay AID1963429 (Molecular Pharmacology Branch, DTP, NCI, 2024)
Where “and” joins values, the source holds several entries; their conditions need not be identical. Equal entries are not always repeated.

Test system: 126254-015-R-J1-PDC complex spheroid growth, % test/control
Assay: Anticancer human tumor 126254-015-R-J1-PDC patient-derived soft tissue sarcoma cell line growth inhibition [Asc]
Conditions: for viability, T/C: stronger effect = lower value
Procedure, shortened: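 Complex spheroids combining tumor cells with HUVEC endothelial cells and human MSCs, at 37 degrees C, 5% CO2; agents tested alone or combined, half-log dilutions from at or near clinical Cmax, or 10 microM if Cmax unknown.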

[1] = curve of first compound, second compound 0.01 µM
[2] = curve of first compound, second compound 0.0316 µM
[3] = curve of first compound, second compound 0.1 µM
[4] = curve of first compound, second compound 0.316 µM
[5] = curve of first compound, second compound 1 µM
[6] = second compound 0.01 µM, first compound 0.0316 µM
[7] = second compound 0.01 µM, first compound 0.1 µM
[8] = second compound 0.01 µM, first compound 0.316 µM
[9] = second compound 0.01 µM, first compound 1 µM
[10] = second compound 0.0316 µM, first compound 0.0316 µM
[11] = second compound 0.0316 µM, first compound 0.1 µM
[12] = second compound 0.0316 µM, first compound 0.316 µM
[13] = second compound 0.0316 µM, first compound 1 µM
[14] = second compound 0.1 µM, first compound 0.0316 µM
[15] = second compound 0.1 µM, first compound 0.1 µM
[16] = second compound 0.1 µM, first compound 0.316 µM
[17] = second compound 0.1 µM, first compound 1 µM
[18] = second compound 0.316 µM, first compound 0.0316 µM
[19] = second compound 0.316 µM, first compound 0.1 µM
[20] = second compound 0.316 µM, first compound 0.316 µM
[21] = second compound 0.316 µM, first compound 1 µM
[22] = second compound 1 µM, first compound 0.0316 µM
[23] = second compound 1 µM, first compound 0.1 µM
[24] = second compound 1 µM, first compound 0.316 µM
[25] = second compound 1 µM, first compound 1 µM
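Further: spheroids exposed to compound for seven days.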
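Wherever viability, T/C is given: 100% = DMSO vehicle control wells.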

Compound `COc1c(OCCCN2CCOCC2)ccc2c3n(c(=NC(=O)c4cnc(N)nc4)nc12)CCN3` + CCN1C(C(=O)NC23CCC(C(=O)O)(CC2)CC3)C(c2cccc(Cl)c2F)C2(C(=O)Nc3cc(Cl)ccc32)C12CCCCC2 has an IC50 (curve of first compound, second compound 0.03 µM) of 44.2 nM, an IC50 (curve of first compound, second compound 0.0949 µM) of 38.6 nM and an IC50 (curve of first compound, second compound 0.3 µM) of 37.4 nM. It also gave an IC50 (curve of first compound, second compound 0.949 µM) of 49.1 nM, an IC50 (curve of first compound, second compound 3 µM) of 51 nM and a viability, T/C (second compound 0.03 µM, first compound 0.00316 µM) of 93.9%. The viability, T/C (second compound 0.03 µM, first compound 0.01 µM) was 91.4%, the viability, T/C (second compound 0.03 µM, first compound 0.0316 µM) was 56.9% and the viability, T/C (second compound 0.03 µM, first compound 0.1 µM) was 28.8%. For the same compound, the viability, T/C (second compound 0.03 µM, first compound 0.316 µM) was 17.4%, the viability, T/C (second compound 0.03 µM, first compound 1 µM) was 11.1% and the viability, T/C (second compound 0.0949 µM, first compound 0.00316 µM) was 87.3%. The viability, T/C (second compound 0.0949 µM, first compound 0.01 µM) was 73.5%, the viability, T/C (second compound 0.0949 µM, first compound 0.0316 µM) was 57.5% and the viability, T/C (second compound 0.0949 µM, first compound 0.1 µM) was 25.8%. It also gave a viability, T/C (second compound 0.0949 µM, first compound 0.316 µM) of 16.1%, a viability, T/C (second compound 0.0949 µM, first compound 1 µM) of 9.86% and a viability, T/C (second compound 0.3 µM, first compound 0.00316 µM) of 89.3%. It also gave a viability, T/C (second compound 0.3 µM, first compound 0.01 µM) of 72.3%, a viability, T/C (second compound 0.3 µM, first compound 0.0316 µM) of 57.2% and a viability, T/C (second compound 0.3 µM, first compound 0.1 µM) of 26.9%. It also gave a viability, T/C (second compound 0.3 µM, first compound 0.316 µM) of 16.3%, a viability, T/C (second compound 0.3 µM, first compound 1 µM) of 10.5% and a viability, T/C (second compound 0.949 µM, first compound 0.00316 µM) of 93.6%. For the same compound, the viability, T/C (second compound 0.949 µM, first compound 0.01 µM) was 86.5%, the viability, T/C (second compound 0.949 µM, first compound 0.0316 µM) was 61.8% and the viability, T/C (second compound 0.949 µM, first compound 0.1 µM) was 30.3%. For the same compound, the viability, T/C (second compound 0.949 µM, first compound 0.316 µM) was 15.6%, the viability, T/C (second compound 0.949 µM, first compound 1 µM) was 10.4% and the viability, T/C (second compound 3 µM, first compound 0.00316 µM) was 87.2%. For the same compound, the viability, T/C (second compound 3 µM, first compound 0.01 µM) was 85.3%, the viability, T/C (second compound 3 µM, first compound 0.0316 µM) was 62.6% and the viability, T/C (second compound 3 µM, first compound 0.1 µM) was 31.2%. The viability, T/C (second compound 3 µM, first compound 0.316 µM) was 16.4% and the viability, T/C (second compound 3 µM, first compound 1 µM) was 10.9%.

Compound `C#Cc1c(F)ccc2cc(O)cc(-c3ncc4c(N5CC6CCC(C5)N6)nc(OCC56CCCN5CC(F)C6)nc4c3F)c12` (stereo not drawn) + CNC(C)C(=O)NC1CN(S(=O)(=O)c2cccc(S(=O)(=O)N3CCC4CCC(C(=O)NC(c5ccccc5)c5ccccc5)N4C(=O)C(NC(=O)C(C)NC)C3)c2)CCC2CCC(C(=O)NC(c3ccccc3)c3ccccc3)N2C1=O has an IC50 [1] of over 10000 nM, an IC50 [2] of 7580 nM and an IC50 [3] of 3970 nM. It also gave an IC50 [4] of 8980 nM, an IC50 [5] of 895 nM and a viability, T/C [6] of 77.7%. The viability, T/C [7] was 81.8%, the viability, T/C [8] was 78.5% and the viability, T/C [9] was 73%. For the same compound, the viability, T/C (second compound 0.01 µM, first compound 3.16 µM) was 81.7%, the viability, T/C (second compound 0.01 µM, first compound 10 µM) was 63.7% and the viability, T/C [10] was 69.6%. It also gave a viability, T/C [11] of 69.4%, a viability, T/C [12] of 71.5% and a viability, T/C [13] of 64.8%. For the same compound, the viability, T/C (second compound 0.0316 µM, first compound 3.16 µM) was 61.6%, the viability, T/C (second compound 0.0316 µM, first compound 10 µM) was 46.4% and the viability, T/C [14] was 68%. It also gave a viability, T/C [15] of 62.4%, a viability, T/C [16] of 65.9% and a viability, T/C [17] of 54.1%. The viability, T/C (second compound 0.1 µM, first compound 3.16 µM) was 55.6%, the viability, T/C (second compound 0.1 µM, first compound 10 µM) was 40.5% and the viability, T/C [18] was 58.4%. The viability, T/C [19] was 58.7%, the viability, T/C [20] was 55.6% and the viability, T/C [21] was 58.4%. For the same compound, the viability, T/C (second compound 0.316 µM, first compound 3.16 µM) was 50.6%, the viability, T/C (second compound 0.316 µM, first compound 10 µM) was 48.1% and the viability, T/C [22] was 55.8%. The viability, T/C [23] was 49.5%, the viability, T/C [24] was 56.1% and the viability, T/C [25] was 47.8%. It also gave a viability, T/C (second compound 1 µM, first compound 3.16 µM) of 46.7% and a viability, T/C (second compound 1 µM, first compound 10 µM) of 40.9%.

In the case of `Cc1c(S(C)(=O)=O)c(-c2cc(F)cc(N3CCN(c4ccc(NS(=O)(=O)c5ccc(NC(CCN6CCC(C(=O)OCCCP(=O)(O)O)CC6)CSc6ccccc6)c(S(=O)(=O)C(F)(F)F)c5)cc4)CC3)c2)c(-c2ccc(Cl)cc2)n1C(C)C` (stereo not drawn), the viability, T/C (compound 0.1 µM) is reported as 86.8% [middle of 14 runs], the viability, T/C (compound 0.316 µM) is reported as 85.8% [middle of 13 runs] and the viability, T/C (compound 1 µM) is reported as 84.3% [middle of 14 runs]. The viability, T/C (compound 3.16 µM) was 87.8% [middle of 14 runs], the viability, T/C (compound 10 µM) was 81.8% [middle of 14 runs] and the IC50 (compound alone, run of 09/27/2022) was over 10000 nM.

For `COc1c(OCCCN2CCOCC2)ccc2c3n(c(=NC(=O)c4cnc(N)nc4)nc12)CCN3`, the viability, T/C (compound 0.00316 µM) was 98.8% and 93% and 88.2%, the viability, T/C (compound 0.01 µM) was 87.4% and 90.6% and 95.3% and the viability, T/C (compound 0.0316 µM) was 60.5% and 65.2% and 66.9%. For the same compound, the viability, T/C (compound 0.1 µM) was 37.3% and 29.9% and 45.1%, the viability, T/C (compound 0.316 µM) was 16.1% and 17.7% and 24.1% and the viability, T/C (compound 1 µM) was 9.83% and 12.4% and 16.3%. The IC50 (curve of compound) was 53.6 nM and 52.5 nM and 76 nM.

Compound `CCN1CCN(Cc2ccc(Nc3ncc(F)c(-c4cc(F)c5nc(C)n(C(C)C)c5c4)n3)nc2)CC1` + CNC(C)C(=O)NC1CN(S(=O)(=O)c2cccc(S(=O)(=O)N3CCC4CCC(C(=O)NC(c5ccccc5)c5ccccc5)N4C(=O)C(NC(=O)C(C)NC)C3)c2)CCC2CCC(C(=O)NC(c3ccccc3)c3ccccc3)N2C1=O has an IC50 [1] of over 1000 nM, an IC50 [2] of over 1000 nM and an IC50 [3] of over 1000 nM. The IC50 [4] was over 1000 nM, the IC50 [5] was over 1000 nM and the viability, T/C (second compound 0.01 µM, first compound 0.00316 µM) was 94.4%. For the same compound, the viability, T/C (second compound 0.01 µM, first compound 0.01 µM) was 96.4%, the viability, T/C [6] was 91.5% and the viability, T/C [7] was 82.5%. The viability, T/C [8] was 97%, the viability, T/C [9] was 91.6% and the viability, T/C (second compound 0.0316 µM, first compound 0.00316 µM) was 71%. For the same compound, the viability, T/C (second compound 0.0316 µM, first compound 0.01 µM) was 74.4%, the viability, T/C [10] was 77.8% and the viability, T/C [11] was 80.1%. The viability, T/C [12] was 81.7%, the viability, T/C [13] was 77.6% and the viability, T/C (second compound 0.1 µM, first compound 0.00316 µM) was 61.4%. For the same compound, the viability, T/C (second compound 0.1 µM, first compound 0.01 µM) was 68.7%, the viability, T/C [14] was 62.9% and the viability, T/C [15] was 69%. It also gave a viability, T/C [16] of 75.9%, a viability, T/C [17] of 79.6% and a viability, T/C (second compound 0.316 µM, first compound 0.00316 µM) of 57.8%. For the same compound, the viability, T/C (second compound 0.316 µM, first compound 0.01 µM) was 62.5%, the viability, T/C [18] was 62.4% and the viability, T/C [19] was 67.4%. It also gave a viability, T/C [20] of 65.6%, a viability, T/C [21] of 71.8% and a viability, T/C (second compound 1 µM, first compound 0.00316 µM) of 59.2%. It also gave a viability, T/C (second compound 1 µM, first compound 0.01 µM) of 61.5%, a viability, T/C [22] of 65% and a viability, T/C [23] of 52.6%. The viability, T/C [24] was 57.2% and the viability, T/C [25] was 60.9%.
